Experimental data: US12365658B2, “Benzothia(di)azepine compounds and their use as bile acid modulators” (Albireo AB, priority 2021, dated 2025)

System: Caco-2 cells
Test: Bidirectional permeability assay (Caco-2 cells)
Type: in vitro ADME
Conditions: 10 μM in FaSSIF buffer, 120 minutes; for Permeability (Caco-2) Papp A2B: absorptive direction (A2B); for Permeability (Caco-2) Papp B2A: secretory direction (B2A)
Method: Bidirectional Permeability Assay (Caco-2 Cells)
Caco-2 cells (Evotec) were seeded at a density of 70,000 cells/well in Millicell® 24-well cell culture insert plates and maintained in an incubator (37° C., 5% CO2, 95% RH) for 21 days with media change on alternate days.
Stock solutions (10 mM) of the test compounds, atenolol (low permeability marker), propranolol (high permeability marker) and digoxin (substrate for P-gp transport pathway) were prepared in dimethylsulfoxide (DMSO). An intermediate stock solution (1 mM) was prepared by diluting 10 μL of 10 mM master stock solution with 90 μL of neat DMSO. A working stock solution (10 μM) was prepared by diluting 50 μL of 1 mM with 4950 μL of FaSSIF buffer. Post addition of compounds to the FaSSIF, samples were subjected to sonication for 2 hours, and centrifuged at 4000 RPM for 30 minutes at 37° C. The 4 mL of resultant supernatant was directly used in the assay. The final DMSO concentration in the transport experiments was 1%.
On the day of assay, Caco-2 monolayers were washed twice with transport buffer (HBSS, pH 7.4) and pre-incubated for 30 min (37° C., 5% CO2, 95% RH) in an incubator. The electrical resistance of the monolayers was measured with a Millicell®-ERS system. Monolayers with trans-epithelial electrical resistance (TEER) values greater than 350 ohm·cm^2 were selected for the assay.
The assay was conducted in absorptive direction (A2B) and secretory (B2A) directions. Transport experiments were initiated by addition of transport assay buffer (FaSSIF buffer prepared in HBSS) consisting of compounds to the donor compartment (apical chamber A-B; basolateral chamber B-A) in duplicate (n=2) wells. Drug free HBSS buffer (pH 7.4) containing 1% bovine serum albumin (BSA) was introduced to the receiver (A-B-basolateral; B-A-Apical) compartments. The volumes of apical and basolateral compartments were 0.4 and 0.8 mL, respectively. After adding dosing solution, plates were incubated in an incubator for 120 minutes at 37° C. After 120 minutes, donor and receiver samples were collected and matrix matched (1:1, 30 μL study sample+30 μL blank buffer) with the opposite buffer. Dosing samples matrix matched (1:1, 30 μL study sample+30 μL blank buffer) with the opposite buffer. Samples were processed by adding acetonitrile containing internal standard (60 μL study sample+200 μL acetonitrile containing internal standard-Tolbutamide, 500 ng/mL). Samples were vortexed and centrifuged at 4000 rpm for 10 minutes. The obtained supernatant (100 μL) was diluted with 100 μL of water and transferred to fresh 96 well plates. The concentration of compounds in the samples was analyzed by liquid chromatography tandem mass spectrometry (LC-MS/MS) method using discovery grade bio-analytical method, as applicable.
The mean apparent permeability (Papp, ×10^−6 cm/sec) of the test compounds, atenolol, propranolol and digoxin were calculated as follows:
where dq/dt=rate of transport (rate of transport of compound in the receiver compartment), C0=initial concentration in the donor compartment, A=surface area of the effective filter membrane.

| SMILES | Permeability (Caco-2) Papp A2B [×10⁻⁶ cm/s] | Permeability (Caco-2) Papp B2A [×10⁻⁶ cm/s] |
| --- | --- | --- |
| CCCCC1CN(c2ccccc2)c2cc(SC)c(OCC(C)(OC)C(=O)O)cc2S(=O)(=O)N1C (single isomer, unassigned) [24, diastereomer 1] | 8.6 | 15.9 |
| CCCCC1CN(c2ccccc2)c2cc(SC)c(OCC(C)(OC)C(=O)O)cc2S(=O)(=O)N1C (single isomer, unassigned) [24, diastereomer 2] | 16.3 | 24 |
